Drawing on patent US20180186742A1, “PICOLINAMIDES AS FUNGICIDES” (Dow AgroSciences LLC, priority 2017, published 2018), this text covers pest or weed control for 13 compounds.

Where two headings read alike, the source gives them in different places.

Common to all, as to format: in vivo
Assay [1] has as its system Parastagonospora nodorum. Briefly: Wheat glume blotch (LEPTNO), disease control on wheat seedlings. The note with it: 1DP test at 100 ppm, read-out: LEPTNO disease control rating. How it is done: Technical grades of materials were dissolved in acetone, which were then mixed with nine volumes of water containing 110 ppm Triton X-100. The fungicide solutions were applied onto wheat seedlings using an automated booth sprayer to run-off. All sprayed plants were allowed to air dry prior to further handling. All fungicides were evaluated using the aforementioned method for their activity vs. all target diseases, unless stated otherwise. Wheat leaf blotch and brown rust activity were also evaluated using track spray applications, in which case the fungicides were formulated as EC formulations, containing 0.1% Trycol 5941 in the spray solutions. Wheat plants (variety Yuma) were grown from seed in a greenhouse in 50% mineral soil/50% soil-less Metro mix until the first leaf was fully emerged, with 7-10 seedlings per pot. These plants were inoculated with an aqueous spore suspension of Parastagonospora nodorum 24 hr after fungicide treatments. After inoculation the plants were kept in 100% relative humidity (one day in a dark dew chamber followed by two days in a lighted dew chamber at 20° C.) to permit spores to germinate and infect the leaf. The plants were then transferred to a greenhouse set at 20° C. for disease to develop. Fungicide formulation, application and disease assessment followed the procedures as described in the Example A.

The subject of assay [2] is Pseudoperonospora cubensis. Briefly: Cucumber downy mildew (PSPECU), disease control on cucumber seedlings. The note with it: 24 h, 1DP (1 Day Protectant) test at 100 ppm. How it is done: Technical grades of materials were dissolved in acetone, which were then mixed with nine volumes of water containing 110 ppm Triton X-100. The fungicide solutions were applied onto wheat seedlings using an automated booth sprayer to run-off. All sprayed plants were allowed to air dry prior to further handling. All fungicides were evaluated using the aforementioned method for their activity vs. all target diseases, unless stated otherwise. Wheat leaf blotch and brown rust activity were also evaluated using track spray applications, in which case the fungicides were formulated as EC formulations, containing 0.1% Trycol 5941 in the spray solutions. Cucumber seedlings (variety Bush Pickle) were grown in soil-less Metro mix, with one plant per pot, and used in the test when 12 to 14 days old. Plants were inoculated with a spore suspension 24 hr following fungicide treatments. Test plants were inoculated with an aqueous spore suspension of Pseudoperonospora cubensis 24 hr after fungicide treatments. After inoculation the plants were kept in a dew room at 22° C. with 100% relative humidity for 24 hr to permit spores to germinate and infect the leaf. The plants were then transferred to a greenhouse set at 20° C. until disease was fully expressed. Fungicide formulation, application and disease assessment on the sprayed leaves followed the procedures as described in the Example A.

Assay [3] deals with Zymoseptoria tritici. Briefly: Leaf blotch of wheat (SEPTTR), disease control on wheat seedlings. The note with it: low volume application at 121.5 g/H. The method in brief: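 Z. tritici spores were inoculated onto wheat seedlings (Yuma, first leaf emerged) either before or after treatment. Treatment was an automated spray to run-off of acetone/Triton X-100 water solutions, or a track spray of EC formulations with 0.1% Trycol 5941. Plants were held in dew chambers at 20 °C and then a greenhouse at 20 °C. First-leaf severity (0–100%) was converted to percent control against untreated plants.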

The test system of assay [4] is Puccinia triticina. The assay is described as follows: Wheat brown rust (PUCCRT), disease control on wheat seedlings. The note with it: low volume application at 121.5 g/H. The method in brief: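 Compounds in acetone, diluted with nine volumes of water containing 110 ppm Triton X-100, sprayed to run-off on first-leaf Yuma wheat seedlings; track-spray tests used EC formulations with 0.1% Trycol 5941. Puccinia triticina spores applied before or after treatment. Overnight dark dew room at 22° C, 100% humidity, then greenhouse at 24° C.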

The test system of assay [5] is Phakopsora pachyrhizi. Briefly: Asian soybean rust (PHAKPA), disease control on soybean seedlings. The conditions noted are these: High volume application at 25 ppm. The method in brief: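 Two-week-old Williams 82 soybean seedlings were sprayed to run-off with compound in acetone/water (1:9) containing 0.011% Tween 20. Inoculation was 3 days before (curative) or 1 day after (protectant) treatment, followed by 24 h dark dew at 22 °C, 100% RH, then 23 °C; disease severity scored on sprayed leaves.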

[6] abbreviates: 24 h, 1 Day Protectant, read-out: SEPTTR disease control, 1DP, LV activity.
[7] abbreviates: 72 h, 3 Day Curative, read-out: SEPTTR disease control, 3DC, LV activity.
The mark [8] stands for this setting: 24 h, 1 Day Protectant, read-out: PUCCRT disease control, 1DP, LV activity.
[9] abbreviates: 72 h, 3 Day Curative, read-out: PUCCRT disease control, 3DC, LV activity.
Where [10] appears, read: 24 h, 1 Day Protectant, read-out: PHAKPA 1DP disease control rating.
[11] abbreviates: 72 h, 3 Day Curative, read-out: PHAKPA 3DC disease control rating.
Where [12] appears, read: 24 h, 1 Day Protectant, wheat leaf blotch, read-out: SEPTTR 1DP disease control, LV activity.
Where [13] appears, read: 72 h, 3 Day Curative, wheat leaf blotch, read-out: SEPTTR 3DC disease control, LV activity.
Setting [14] is: 24 h, 1 Day Protectant, wheat brown rust, read-out: PUCCRT 1DP disease control, LV activity.
[15] abbreviates: 72 h, 3 Day Curative, wheat brown rust, read-out: PUCCRT 3DC disease control, LV activity.

On to `CCC(=O)Oc1c(OC)ccnc1C(=O)N[C@@H](C)C(=O)O[C@@H](C)[C@H](c1ccc(F)cc1C)C(C)C` [Compound 357], for which the pest or weed control at 100 ppm was more than 80% in assay [1] and less than 80% in assay [2]. Besides, the pest or weed control at 121.5 g/ha in assay [3] (setting [6]), in assay [3] (setting [7]), in assay [4] (setting [8]) and in assay [4] (setting [9]) was more than 80% in each case. Further, the pest or weed control at 25 ppm in assay [5] (setting [10]) and in assay [5] (setting [11]) was more than 80% each time.
As for `COc1ccnc(C(=O)N[C@@H](C)C(=O)O[C@@H](C)[C@H](c2ccccc2C)C(C)C)c1OC(=O)C(C)C` [Compound 375], the pest or weed control at 100 ppm was more than 80% in assay [1] and less than 80% in assay [2]. In addition, the pest or weed control at 121.5 g/ha in assay [3] (setting [12]) was less than 80%; in assay [3] (setting [13]) it was more than 80%; in assay [4] (setting [14]), more than 80%; in assay [4] (setting [15]), more than 80%. Further, the pest or weed control at 25 ppm in assay [5] (setting [10]) and in assay [5] (setting [11]) was more than 80% throughout.
Regarding `CCOC(=O)Oc1c(OC)ccnc1C(=O)N(C(=O)OCC)[C@@H](C)C(=O)O[C@@H](C)[C@H](c1ccc(F)cc1C)C(C)C` [Compound 371], the pest or weed control at 100 ppm is more than 80% in assay [1] and less than 80% in assay [2]. Besides, the pest or weed control at 25 ppm in assay [5] (setting [10]) and in assay [5] (setting [11]) was more than 80% throughout.
Turning to `COc1ccnc(C(=O)N[C@@H](C)C(=O)O[C@@H](C)[C@H](c2ccccc2C)C(C)C)c1OC(C)=O` [Compound 364], the pest or weed control at 100 ppm in assay [1] and in assay [2] was less than 80% each time. Further, the pest or weed control at 121.5 g/ha was less than 80% in assay [3] (setting [12]), less than 80% in assay [3] (setting [13]), more than 80% in assay [4] (setting [14]) and less than 80% in assay [4] (setting [15]). In addition, the pest or weed control at 25 ppm in assay [5] (setting [10]) and in assay [5] (setting [11]) was more than 80% in each case.
Turning to `COc1ccnc(C(=O)N[C@@H](C)C(=O)O[C@@H](C)[C@H](c2ccc(F)cc2C)C(C)C)c1OC(=O)C(C)(C)C` [Compound 374], the pest or weed control at 100 ppm in assay [1] was more than 80%; in assay [2], less than 80%. Moreover, the pest or weed control at 121.5 g/ha in assay [3] (setting [12]) is more than 80%; in assay [3] (setting [13]), more than 80%; in assay [4] (setting [14]), more than 80%; in assay [4] (setting [15]), less than 80%. For the same compound, the pest or weed control at 25 ppm in assay [5] (setting [10]) is more than 80%; in assay [5] (setting [11]), less than 80%.
Take `CCC(C)C(=O)Oc1c(OC)ccnc1C(=O)N[C@@H](C)C(=O)O[C@@H](C)[C@H](c1ccc(F)cc1C)C(C)C` (stereo partly drawn) [Compound 355]: the pest or weed control at 100 ppm in assay [1] is more than 80%; in assay [2], less than 80%. Besides, the pest or weed control at 121.5 g/ha was more than 80% in assay [3] (setting [6]), more than 80% in assay [3] (setting [7]), more than 80% in assay [4] (setting [8]) and less than 80% in assay [4] (setting [9]). Also, the pest or weed control at 25 ppm in assay [5] (setting [10]) and in assay [5] (setting [11]) was more than 80% in each case.
As for `COc1ccnc(C(=O)N[C@@H](C)C(=O)O[C@@H](C)[C@H](c2ccc(F)cc2C)C(C)C)c1OC(C)=O` [Compound 186], the pest or weed control at 100 ppm is more than 80% in assay [1] and less than 80% in assay [2]. The pest or weed control at 121.5 g/ha in assay [3] (setting [6]), in assay [3] (setting [7]), in assay [4] (setting [8]) and in assay [4] (setting [9]) was more than 80% in each case. For the same compound, the pest or weed control at 25 ppm in assay [5] (setting [10]) and in assay [5] (setting [11]) was more than 80% in each case.
Regarding `COc1cc[n+]([O-])c(C(=O)N[C@@H](C)C(=O)O[C@@H](C)[C@H](c2ccc(F)cc2C)C(C)C)c1O` [Compound 218], the results for the pest or weed control at 100 ppm in assay [1] and in assay [2] were more than 80% and less than 0%, respectively. Besides, the pest or weed control at 121.5 g/ha in assay [3] (setting [6]) was more than 80%; in assay [3] (setting [7]), less than 80%; in assay [4] (setting [8]) it was more than 80%; in assay [4] (setting [9]), less than 80%. Also, the pest or weed control at 25 ppm in assay [5] (setting [10]) and in assay [5] (setting [11]) was less than 80% in each case.
In the case of `COc1ccnc(C(=O)N[C@@H](C)C(=O)O[C@@H](C)[C@H](c2ccc(F)cc2C)C(C)C)c1OC(=O)C1CCCC1` [Compound 354], the pest or weed control at 100 ppm in assay [1] and in assay [2] was more than 80% in each case. Also, the pest or weed control at 121.5 g/ha is more than 80% in assay [3] (setting [6]), more than 80% in assay [3] (setting [7]), more than 80% in assay [4] (setting [8]) and less than 80% in assay [4] (setting [9]). For the same compound, the pest or weed control at 25 ppm in assay [5] (setting [10]) and in assay [5] (setting [11]) was more than 80% in each case.
Regarding `COc1ccnc2c(=O)n([C@@H](C)C(=O)O[C@@H](C)[C@H](c3ccc(F)cc3C)C(C)C)c(=O)oc12` [Compound 217], the pest or weed control at 100 ppm in assay [1] was more than 80%; in assay [2] it was less than 0%. Further, the pest or weed control at 121.5 g/ha in assay [3] (setting [6]), in assay [3] (setting [7]), in assay [4] (setting [8]) and in assay [4] (setting [9]) was more than 80% each time. Moreover, the pest or weed control at 25 ppm in assay [5] (setting [10]) and in assay [5] (setting [11]) was more than 80% in each case.
`COc1ccnc(C(=S)N[C@@H](C)C(=O)O[C@@H](C)[C@H](c2ccc(F)cc2C)C(C)C)c1OC(C)=O` [Compound 219]: the pest or weed control at 100 ppm in assay [1] was more than 80%; in assay [2], less than 80%. Also, the pest or weed control at 121.5 g/ha is less than 80% in assay [3] (setting [6]), more than 80% in assay [3] (setting [7]), more than 80% in assay [4] (setting [8]) and more than 80% in assay [4] (setting [9]). In addition, the pest or weed control at 25 ppm in assay [5] (setting [10]) and in assay [5] (setting [11]) was more than 80% each time.
For the compound `COc1ccnc(C(=O)N[C@@H](C)C(=O)O[C@@H](C)[C@H](c2ccc(F)cc2C)C(C)C)c1OC(=O)CC(C)C` [Compound 356], the pest or weed control at 100 ppm in assay [1] is more than 80%; in assay [2] it was less than 80%. The pest or weed control at 121.5 g/ha in assay [3] (setting [6]) was more than 80%; in assay [3] (setting [7]), more than 80%; in assay [4] (setting [8]) it was more than 80%; in assay [4] (setting [9]), less than 80%. The pest or weed control at 25 ppm in assay [5] (setting [10]) and in assay [5] (setting [11]) was more than 80% throughout.
Take `CCOC(=O)Oc1c(OC)ccnc1C(=O)N[C@@H](C)C(=O)O[C@@H](C)[C@H](c1ccc(F)cc1C)C(C)C` [Compound 372]: the pest or weed control at 100 ppm in assay [1] and in assay [2] was more than 80% in each case. The pest or weed control at 25 ppm in assay [5] (setting [10]) and in assay [5] (setting [11]) was more than 80% throughout.
